In ChEMBL document CHEMBL2406903, “FPRL-1 Receptor Modulators May Provide Treatment for Inflammation” (ACS Med Chem Lett, 2013) one finds fold change (FC) data, which are given here for three molecules.

In the assay the target is T1, N-formyl peptide receptor 2 (Homo sapiens) (UniProt P25090).
T1 sequence (whole entry): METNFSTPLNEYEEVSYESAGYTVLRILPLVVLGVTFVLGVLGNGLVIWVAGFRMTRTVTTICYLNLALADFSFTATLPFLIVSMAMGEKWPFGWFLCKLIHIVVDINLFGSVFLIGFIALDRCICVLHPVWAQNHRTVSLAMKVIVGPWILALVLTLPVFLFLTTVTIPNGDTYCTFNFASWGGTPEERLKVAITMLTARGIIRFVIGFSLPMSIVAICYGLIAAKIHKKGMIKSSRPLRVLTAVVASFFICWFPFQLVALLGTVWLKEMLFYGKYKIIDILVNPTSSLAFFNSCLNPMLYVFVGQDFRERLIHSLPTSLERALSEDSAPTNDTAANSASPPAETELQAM
Briefly: Modulation of FPRL1 (unknown origin) expressed in CHO-Ga16 cells assessed as induction of calcium activity at 0.61 to 10000 nM by FLIPR assay relative to control. It counts as functional, cell-based.
In the case of `CC[C@@H](C)[C@@H](NC(=O)Nc1ccc(Br)cc1)C(=O)NCC(=O)O`, the fold change (FC) was found to be 0.45.
Take `CC(C)C[C@H](NC(=O)Nc1ccc(Br)cc1)C(=O)NC(C)(C)C(=O)O`: the fold change (FC) was 0.96.
Take `CC(C)C[C@H](NC(=O)Nc1ccc(C(F)(F)F)cc1)C(=O)NC(C)(C)C(=O)O`: the fold change (FC) worked out at 0.92.
